Measured values taken from ChEMBL document CHEMBL6071176, “Development of Phloroglucinol-Linked Tris-Quaternary Ammonium Salt Antimicrobial Peptide Mimics with Low Cytotoxicity and Broad-Spectrum Antibacterial Activity” (J Med Chem, 2024).
Values after ≈ are worked out from the molar mass of the structure shown. Active and inactive are the calls of the source. No cut-off for these calls is given here. *1 amine or outer side, *2 acyl side, *3 side chain or, on linkers, in order; H or OH if unused. Where a SMILES comes first, the peptide text is derived from it. Bridges are numbered along the chain shown (N, C = ends). Side-chain parts run from the residue outwards. [ ]: non-standard residue; d: D form. The star is where a group is joined. X1 = C[C@@H](O)[C@H](CN([C@@H](CCN)C(=O)[*:2])[*:1])N[*:3]; Octanoyl(6-Me) = CCC(C)CCCCC(=O)*; Dab = NCC[C@H](N)C(=O)O

What was measured:
Escherichia coli [1] = test: Bactericidal activity against early exponential phase Escherichia coli assessed as bacterial killing at 6 ug/ml incubated for 12 hrs by time-kill assay; format: functional, organism-based; details: dose 6.0 µg/ml
Escherichia coli [2] = test: Bactericidal activity against early exponential phase Escherichia coli assessed as bacterial killing at 6 ug/ml incubated for 6 hrs by time-kill assay; format: functional, organism-based; details: dose 6.0 µg/ml
Escherichia coli [3] = test: Bactericidal activity against late exponential phase Escherichia coli assessed as bacterial killing by measuring bacterial count at 8 ug/ml incubated for 12 hrs by time-kill assay (reference value: 10^8.4 CFU/ml); format: functional; details: dose 8 µg/ml
Staphylococcus aureus [4] = test: Bactericidal activity against early exponential phase Staphylococcus aureus assessed as bacterial killing at 6 ug/ml incubated for 4 hrs by time-kill assay; format: functional, organism-based; details: dose 6.0 µg/ml
Staphylococcus aureus [5] = test: Bactericidal activity against early exponential phase Staphylococcus aureus assessed as bacterial killing at 6 ug/ml incubated for 12 hrs by time-kill assay; format: functional, organism-based; details: dose 6.0 µg/ml
Escherichia coli [6] = test: Antimicrobial activity against Escherichia coli assessed as inhibition of growth incubated for 18 hrs by CLSI guidelines based assay; format: functional
[7] = Hemolytic activity in sheep red blood cells measured after 1 hr incubation; format: toxicity, cell-based, Ovis aries, Erythrocyte
Staphylococcus aureus [8] = test: Anti-biofilim activity against Staphylococcus aureus biofilm assessed bio-film thickness at 32 ug/ml measured after 24 hrs incubation by SYTO 9 staining based […] laser scanning microscopy (CLSM) (reference value: 29.5 microm); format: functional; details: dose 32 µg/ml
Staphylococcus aureus [9] = test: In vivo antibacterial activity against methicillin-resistant Staphylococcus aureus subcutaneously infected in SPF female Kunming mouse model assessed as bacteria count in dissected mouse at 10 mg/kg/day injected into blister after 6 hrs of infection measured after 6 consecutive treatments; format: functional, organism-based
Staphylococcus aureus [10] = test: Antibacterial activity against methicillin-resistant Staphylococcus aureus assessed as inhibition of bacterial growth measured immediately after addition in presence of plasma; format: functional, organism-based
Staphylococcus aureus [11] = test: Anti-bacterial activity against 100 times rifampicin induced persistent cells of Staphylococcus aureus assessed as reduction in persistent cells at 32 times of MIC; format: functional
[12] = Cytotoxicity against human Gastric mucosal cells measured after 24 hrs by CCK-8 assay; format: toxicity, cell-based, Gastric mucosal cell
[13] = Hemolytic activity in red blood cells (unknown origin); format: toxicity, cell-based, Erythrocyte
[14] = Selectivity index, ratio of HC50 for sheep red blood cells to MIC for Staphylococcus aureus; format: toxicity, cell-based, RBC; details: read-out: Selectivity Index
Staphylococcus aureus [15] = test: Antibacterial activity against Staphylococcus aureus; format: functional
Staphylococcus aureus [16] = test: Antimicrobial activity against Staphylococcus aureus assessed as inhibition of growth incubated for 18 hrs by CLSI guidelines based assay; format: functional
[17] = Selectivity index, ratio of HC50 for RBC (unknown origin) to MIC for Staphylococcus aureus; format: toxicity, cell-based; details: red blood cells; read-out: Selectivity Index
Staphylococcus aureus [18] = test: Antibacterial activity against NDM-1 gene-resistant Staphylococcus aureus assessed as inhibition of bacterial growth incubated for 18 hrs by CLSI guidelines based assay; format: functional
Staphylococcus aureus [19] = test: Antibacterial activity against methicillin-resistant Staphylococcus aureus; format: functional
[20] = Selectivity index, ratio of HC50 for human erythrocytes to MIC for methicillin-resistant Staphylococcus aureus; format: toxicity, cell-based, RBC; details: read-out: Selectivity Index
Staphylococcus aureus [21] = test: Antibacterial activity against methicillin-resistant Staphylococcus aureus assessed as inhibition of bacterial growth incubated for 18 hrs by CLSI guidelines based assay; format: functional
Staphylococcus aureus [22] = test: Resistance development in Staphylococcus aureus assessed as increase in MIC measured after 20 passages of continues culture; format: functional
Cell membrane = test: Induction of Cytoplasmic membrane depolarization in Staphylococcus aureus assessed as increase in fluorescence intensity measured at 6 times of MIC measured after 4 hrs by DiSC3(5) dye-based fluorescence assay; format: subcellular
[23] = Hemolytic activity in human erythrocytes; format: toxicity, cell-based, Erythrocyte
[24] = tested on: Stenotrophomonas maltophilia; test: Antimicrobial activity against Stenotrophomonas maltophilia assessed as inhibition of growth incubated for 18 hrs by CLSI guidelines based assay; format: functional
Enterococcus faecalis = test: Antimicrobial activity against Enterococcus faecalis assessed as inhibition of growth incubated for 18 hrs by CLSI guidelines based assay; format: functional

SMILES: CO[C@@]1(NC(=O)C(C(=O)O)c2ccc(O)cc2)C(=O)N2C(C(=O)O)=C(CSc3nnnn3C)CO[C@@H]21 (stereo partly drawn) [MOXALACTAM]
- Activity (Escherichia coli [1]): Active
- Activity (Escherichia coli [2]): Active
- Activity (Escherichia coli [3]): 1 10^4CFU/ml

SMILES: CN[C@H](CC(C)C)C(=O)N[C@H]1C(=O)N[C@@H](CC(N)=O)C(=O)N[C@H]2C(=O)N[C@H]3C(=O)N[C@H](C(=O)N[C@H](C(=O)O)c4cc(O)cc(O)c4-c4cc3ccc4O)[C@H](O)c3ccc(c(Cl)c3)Oc3cc2cc(c3O[C@@H]2O[C@H](CO)[C@@H](O)[C@H](O)[C@H]2O[C@H]2C[C@](C)(N)[C@H](O)[C@H](C)O2)Oc2ccc(cc2Cl)[C@H]1O [VANCOMYCIN]
- Activity (Staphylococcus aureus [4]): Active
- Activity (Staphylococcus aureus [5]): Active
- MIC (Escherichia coli [6]): 2 µg/mL (≈ 1.38 µM)
- HC50 at 1 h [7]: 805 µg/mL
- Activity (Staphylococcus aureus [8]): 22.1 um
- Activity (Staphylococcus aureus [9]): Active
- Activity (Staphylococcus aureus [10]): Active
- Activity (Staphylococcus aureus [11]): 3.2 log10CFU/ml

SMILES: CCCCCCNC(=O)C[N+](C)(C)CCCCCCCCCCCC[N+](C)(C)CC(=O)NCCCCCC.[Br-].[Br-]
- CC50 at 24 h [12]: 19.1 µg/mL
- HC50 [13]: 805 µg/mL
- HC50 at 1 h [7]: > 1280 µg/mL
- selectivity ratio [14]: > 1280
- MIC (Staphylococcus aureus [15]): 1 µg/mL
- MIC (Staphylococcus aureus [16]): 1 µg/mL
- selectivity ratio [17]: 805

SMILES: CNC(C)[C@@H]1CC[C@@H](N)[C@@H](O[C@H]2[C@H](O)[C@@H](O[C@H]3OC[C@](C)(O)[C@H](NC)[C@H]3O)[C@H](N)C[C@@H]2N)O1.CN[C@@H]1[C@@H](O)[C@@H](O[C@@H]2[C@@H](O)[C@H](O[C@H]3O[C@H](C(C)N)CC[C@H]3N)[C@@H](N)C[C@H]2N)OC[C@]1(C)O.CN[C@@H]1[C@@H](O)[C@@H](O[C@@H]2[C@@H](O)[C@H](O[C@H]3O[C@H](CN)CC[C@H]3N)[C@@H](N)C[C@H]2N)OC[C@]1(C)O (stereo partly drawn)
- MIC90 (Staphylococcus aureus [18]): > 32 µg/mL

SMILES: CCCCCCN(Cc1ccc(-c2ccc(CN(CCCCCC)C(=O)[C@@H](N)CCCCN)cc2)cc1)C(=O)[C@@H](N)CCCCN.O=C(O)C(F)(F)F.O=C(O)C(F)(F)F.O=C(O)C(F)(F)F.O=C(O)C(F)(F)F
- MIC (Staphylococcus aureus [19]): 3.1 µg/mL
- selectivity ratio [20]: 74.2

SMILES: C[C@H]1c2cccc(O)c2C(=O)C2=C(O)[C@]3(O)C(=O)C(C(N)=O)=C(O)[C@@H](N(C)C)[C@@H]3[C@@H](O)[C@@H]21 [DOXYCYCLINE ANHYDROUS]
- MIC90 (Staphylococcus aureus [21]): ≥ 16 µg/mL
- MIC90 (Staphylococcus aureus [18]): > 32 µg/mL

SMILES: CC[C@H]1OC(=O)[C@H](C)[C@@H](O[C@H]2C[C@@](C)(OC)[C@@H](O)[C@H](C)O2)[C@H](C)[C@@H](O[C@@H]2O[C@H](C)C[C@H](N(C)C)[C@H]2O)[C@](C)(O)C[C@@H](C)C(=O)[C@H](C)[C@@H](O)[C@]1(C)O [ERYTHROMYCIN]
- MIC90 (Staphylococcus aureus [18]): > 32 µg/mL

SMILES: CCn1cc(C(=O)O)c(=O)c2cc(F)c(N3CCNCC3)cc21 [NORFLOXACIN]
- MIC (Staphylococcus aureus [22]): 4 µg/mL

SMILES: CC[C@H](C)[C@H](NC(=O)CN)C(=O)NCC(=O)N[C@@H](C)C(=O)N[C@H](C(=O)N[C@@H](CC(C)C)C(=O)N[C@@H](CCCCN)C(=O)N[C@H](C(=O)N[C@@H](CC(C)C)C(=O)N[C@H](C(=O)N[C@H](C(=O)NCC(=O)N[C@@H](CC(C)C)C(=O)N1CCC[C@H]1C(=O)N[C@@H](C)C(=O)N[C@@H](CC(C)C)C(=O)N[C@H](C(=O)N[C@@H](CO)C(=O)N[C@@H](Cc1c[nH]c2ccccc12)C(=O)N[C@H](C(=O)N[C@@H](CCCCN)C(=O)N[C@@H](CCCNC(=N)N)C(=O)N[C@@H](CCCCN)C(=O)N[C@@H](CCCNC(=N)N)C(=O)N[C@@H](CCC(N)=O)C(=O)N[C@@H](CCC(N)=O)C(N)=O)[C@@H](C)CC)[C@@H](C)CC)[C@@H](C)O)[C@@H](C)O)C(C)C)C(C)C
- Activity (Cell membrane): Active

SMILES: CCCCCCN(CCCOc1ccccc1-c1ccccc1OCCCN(CCCCCC)C(=O)[C@@H](N)CCCCN)C(=O)[C@@H](N)CCCCN.Cl.Cl.Cl.Cl
- HC50 [23]: > 1000 µg/mL
- MIC (Staphylococcus aureus [19]): 0.5 µg/mL
- selectivity ratio [20]: > 2000

SMILES: CC(C)CCCCC(=O)N[C@@H](CCN)C(=O)N[C@@H](CN[C@@H](CCN)C(=O)N[C@H]1CCNC(=O)[C@H]([C@@H](C)O)NC(=O)[C@H](CCN)NC(=O)[C@H](CCN)NC(=O)[C@H](CC(C)C)NC(=O)[C@@H](CC(C)C)NC(=O)[C@H](CCN)NC1=O)[C@@H](C)O.CCC(C)CCCCC(=O)N[C@@H](CCN)C(=O)N[C@@H](CN[C@@H](CCN)C(=O)N[C@H]1CCNC(=O)[C@H]([C@@H](C)O)NC(=O)[C@H](CCN)NC(=O)[C@H](CCN)NC(=O)[C@H](CC(C)C)NC(=O)[C@@H](CC(C)C)NC(=O)[C@H](CCN)NC1=O)[C@@H](C)O (stereo partly drawn) (H-[X1]([Dab-Octanoyl(6-Me)])[Dab][Dab][dL]L[Dab][Dab]T; lactam 2-C)
- MIC (Staphylococcus aureus [22]): 4 µg/mL

SMILES: CCCCCCCNC(=O)C[N+](C)(C)CCCCCCCCCCCC[N+](C)(C)CC(=O)NCCCCCCC.[Br-].[Br-]
- CC50 at 24 h [12]: 38.1 µg/mL
- MIC (Escherichia coli [6]): 0.062 µg/mL
- HC50 [13]: 1220 µg/mL
- MIC (Staphylococcus aureus [15]): 0.5 µg/mL
- selectivity ratio [17]: 2440

SMILES: CO[C@H]1/C=C/O[C@@]2(C)Oc3c(C)c(O)c4c(O)c(c(/C=N/N5CCN(C)CC5)c(O)c4c3C2=O)NC(=O)/C(C)=C\C=C\[C@H](C)[C@H](O)[C@@H](C)[C@@H](O)[C@@H](C)[C@H](OC(C)=O)[C@@H]1C [RIFAMPIN]
- MIC90 (Staphylococcus aureus [18]): > 32 µg/mL

SMILES: CCCCCCCC[N+](C)(C)CCCOc1cc(OCCC[N+](C)(C)CCCCCCCC)cc(OCCC[N+](C)(C)CCCCCCCC)c1.[Br-].[Br-].[Br-]
- CC50 at 24 h [12]: < 30 µg/mL
- MIC (Escherichia coli [6]): 4 µg/mL
- HC50 at 1 h [7]: > 1280 µg/mL
- selectivity ratio [14]: > 640
- MIC (Staphylococcus aureus [16]): 2 µg/mL
- MIC [24]: 4 µg/mL
- MIC (Enterococcus faecalis): 1 µg/mL
